Consider two compounds from patent US20070238793A1, “Structural carotenoid analogs or derivatives for the modulation of systemic and/or target organ redox status” (priority 2005, published 2007).

Experiment [1] deals with superoxide anion signal from PMA-stimulated human polymorphonuclear leukocytes (PMNs). Briefly: Direct superoxide anion scavenging by EPR spectroscopy (DEPMPO spin trap) in PMA-stimulated isolated human neutrophils. In kind it is cell-based. The settings on record: millimolar range, water. As for the experimental part:
Leukocyte Isolation and Preparation. Human polymorphonuclear leukocytes (PMNs) were isolated from freshly sampled venous blood of a single volunteer by Percoll density gradient centrifugation as described previously. Briefly, each 10 mL of whole blood was mixed with 0.8 mL of 0.1 M EDTA and 25 mL of saline. The diluted blood was then layered over 9 mL of Percoll at a specific density of 1.080 g/mL. After centrifugation at 400×g for 20 min at 20° C., the plasma, mononuclear cell, and Percoll layers were removed. Erythrocytes were subsequently lysed by addition of 18 mL of ice-cold water for 30 s, followed by 2 mL of 10×PIPES buffer (25 mM PIPES, 110 mM NaCl, and 5 mM KCl, titrated to pH 7.4 with NaOH). […] Afterward, PMNs were counted by light microscopy on a hemocytometer. […]
EPR Measurements. […] The microwave frequency was measured with a Model 575 microwave counter (EIP Microwave, Inc., San Jose, Calif.). […]
Instrument settings used in the spin-trapping experiments were as follows: modulation amplitude, 0.32 G; time constant, 0.16 s; scan time, 60 s; modulation frequency, 100 kHz; microwave power, 20 milliwatts; and microwave frequency, 9.76 GHz. The samples were placed in a quartz EPR flat cell, and spectra were recorded. The component signals in the spectra were identified and quantified as reported previously.

In experiment [2] the test system is mouse heart (myocardium) redox status. Briefly: Whole-body time-course PEDRI of TEMPONE nitroxide decay in the myocardial region of treated mice. In kind it is in vivo. The following applies: 10 mg/kg daily I.V. for 4 days, TEMPONE probe. From the text: Proton electron double resonance imaging (PEDRI) is a recently developed low-field double magnetic resonance technique (Lurie et al. 2002). The technique uses the Overhauser effect to image the distribution of free radicals in biological samples. Of particular interest is that the technique can be extended to whole animals, allowing systemic redox state analysis as well as individual target organ analysis after therapeutic treatment. The in vivo application of the technique requires a balance between the electron paramagnetic resonance (EPR) irradiation frequency and the magnetic field applied: sufficiently low magnetic field must be utilized that allows penetration of the whole animal, while at the same time limiting nonresonant power deposition in the animal. […]
After the mice were placed in the PEDRI resonator, a bolus injection of 0.55-0.6 mL (normalized to the body weight of the individual animal) of 100 mM TEMPONE solution in PBS was given over 50-55 s through the tail vein. A series of time-course PEDRI measurements were then acquired every 10-15 s after the injection of the nitroxide probe solution, until the image intensity reached a minimum (i.e., no nitroxide signal could be detected). […]

Turning to “3,3′-Diphosphoryloxy-β,ε-carotene sodium salt [compound 9]”, in experiment [1], the “aqueous superoxide scavenging profile (in words)” value is on record as “slightly increased scavenging”. As for `CC1=C(/C=C/C(C)=C/C=C/C(C)=C/C=C/C=C(C)/C=C/C=C(C)/C=C/C2=C(C)C(=O)C(OC(=O)CCC(=O)O)CC2(C)C)C(C)(C)CC(OC(=O)CCC(=O)O)C1=O` (stereo not drawn) [Cardax™, disodium disuccinate derivative of synthetic astaxanthin], in experiment [2], the “rate of nitroxide reduction in the mouse heart compared to untreated control animals” value is “slower mean rate of nitroxide reduction”. The “half-time (t) for the decay of the nitroxide signal intensity, myocardial region” value in experiment [2] (mean±SEM, n=4, untreated 0.49±0.08) is 0.99 ± 0.14 min.
